Reference: US20240156790A1, “COMPOUNDS, COMPOSITIONS, AND METHODS FOR MODULATING FERROPTOSIS AND TREATING EXCITOTOXIC DISORDERS” (THE TRUSTEES OF COLUMBIA UNIVERSITY IN THE CITY OF NEW YORK, priority 2018, published 2024)
Entries after “also recorded” stand apart in the source; their conditions may differ.

Tests used:
[1] = Microsomal Stability Assay (Examples 6 and 8); format: in vitro ADME, mouse; details: for half-life at 20 µM: CD-1, mouse, liver microsomes, pH 7.4, text, read-out: half-life in mouse liver microsomes; for microsomal stability / half-life, in words: assessed over two hours
Experimental: (§1) To a 96-well polypropylene plate was added phosphate buffer (182.2 μL, pH 7.4, 100 mM) followed by addition of NADPH-regenerating system solution A (10 μL), and NADPH regenerating system solution B (2 μL) (Corning Gentest 3P NADPH regenerating system solution A (#451220) and B (#451200)). A stock solution of analog (0.8 μL. 5 mM) or fer-1 (positive control) was added and the mixture was warmed to 37° C. for 5 min. Mouse microsomes (CD-1, 20 mg/mL, Life Technologies) (5 μL, thawed in 37° C. water bath before use) were added. The resulting reaction mixture was kept at 37° C. with gentle agitation for the duration of the experiment. At selected time points (0, 1, 5, 10, 20, 30, 60 and 120 min) aliquots (15 μL) were withdrawn from the plate and quenched upon addition to cold methanol (60 μL), containing an internal standard (5 μM) in a separate 96-well polypropylene plate. At the completion of the final time-point, the samples were centrifuged at 4,000 rpm for 5 min at 4° C. The supernatant (40 μL) was withdrawn and transferred to a sample vial with insert. The samples were analyzed by LC-MS. LC-MS analysis was performed on a platform comprising a Thermo Scientific Dionex Ultimate 3000 and a Bruker amaZon SL equipped with an electrospray ionization source controlled by Bruker Hystar 3.2. Chromatographic separation was performed by injecting 5 μL of the sample onto an Agilent Eclipse Plus C18 column (2.1×50 mm, 3.5 μm) maintained at 20° C. The flow rate was maintained at 400 μL/min. The initial flow conditions were 80% solvent A (water containing 0.1% acetic acid) and 20% solvent B (methanol containing 0.1% acetic acid). Solvent B was raised to 80% over 0.50 min by 1.50 min. Solvent B was raised to 100% by 5.00 min and held there for 3.25 min. […] All analogs were detected in positive mode as [M+H]*. The percent of compound remaining at each time-point was calculated as the ratio of the integrated compound peak over the internal standard peak and standardized to the t=0 time-point. Values were plotted in GraphPad Prism 9 and fit with a one phase decay.
as §1, with “and NADPH-regenerating” for “and NADPH regenerating”, “rpm (1872 g)” for “rpm”, “[M+H]*. […]” for “[M+H]*. The percent of compound remaining at each time-point was calculated as the ratio of the integrated compound peak over the internal standard peak and standardized to the t=0 time-point. Values were plotted in GraphPad Prism 9 and fit with a one phase decay.”

[2] = test system: HT-1080 cells; assay: Cell viability assays in HT-1080 cells, ferroptosis induced by IKE or RSL3 (Example 8); format: cell-based; details: for IC50: Homo sapiens, HT-1080, 48 h
Experimental: Cell culture assays were incubated at 37° C. with 5% CO2. HT-1080 cells were grown in DMEM (Corning) supplemented with 10% FBS (Life Technologies), 1% Penicillin-Streptomycin 10,000 U/mL (Gibco), and 1% MEM Non-Essential Amino Acids Solution 100× (Gibco). For cell viability assays, cells were trypsinized, counted, and seeded into 384-well white polypropylene plates at 1,000 cells/well, unless otherwise specified. After allowing cells to adhere overnight, compounds in DMSO stocks were arrayed in a 16-point dilution series prepared in a mother plate, and treated from a daughter plate, [DMSO]=0.28%. After 24 or 48 h, 50% CellTiter-Glo (Promega) 50% cell culture medium was added to each well and incubated at room temperature with shaking for 15 min. Luminescence was measured using a Victor X5 plate reader (PerkinElmer). All cell viability data were normalized to the DMSO vehicle condition. […] All 384w measurements were performed in triplicate
We first evaluated the efficacy of four pyridine analogs, TH-2-9-1, TH-2-31, TH-2-37-1, and TH-2-37-2, in suppressing ferroptosis induced by IKE and RSL3 in HT-1080 cells. […] We sought to determine whether incorporation of pyridine changed stability in mouse liver microsomes.

[3] = test system: N27 rat dopaminergic cells; assay: Suppression of ferroptosis induced by RSL3 in N27 cells (CellTiter-Glo viability); format: cell-based; details: Rattus norvegicus, N27, 24 h, Table 3; ^d 24 hr treatment, 1,000 cells/well seeded; read-out: IC50
[4] = TH-2-31, TH-4-55-2, TH-4-67 PK Study (IP, IV, PO; plasma and brain); format: in vivo, C57BL/6 mice; details: mouse, in vivo
Experimental: C57BL/6 mice (8-weeks of age and ˜25 g weight) were weighed before injection and divided into groups of two male and female mice per cage. Compound was dissolved in 5% DMSO/95% of 1:1 [(65% v/v of 25% w/v 2-hydroxypropyl-3-cyclodextrin (Cayman Chemical) dissolved in 20% EtOH, 30% v/v Poly(ethylene glycol)-400 (Sigma Aldrich 202398), 5% v/v Tween 80 (Fluka 59924)):MilliQ water] to create a 2 mg/mL solution. The same formulation without compound was used as a vehicle control. The solution was sterilized using a […] Steriflip filter unit (Thomas Scientific 1189Q46). Mice were dosed IP, IV, and PO routes of administration and euthanized by CO2 asphyxiation for 3 min at 0, 1, 2, 4, 8, and 24 h after administration. To ensure that the vehicle was well-tolerated 4 mice were treated with vehicle and euthanized 4 h after administration. ˜0.5 mL of blood was collected via cardiac puncture and immediately put in K3 EDTA microtubes ([…] 41.1504.105) and kept on ice. Organs were harvested, placed in Eppendorf tubes, and frozen on dry ice. Blood samples were centrifuged for 10 min at 2,100×g at 4° C., then plasma was transferred to a clean tube and frozen on dry ice. Organ samples were weighed and placed in hard tissue homogenizing tubes (Omni International 19-628) and a volume of DEPC-treated nuclease-free water (IBI Scientific IB42200) was added to make a 500 mg/mL solution and homogenized using the Omni Bead Ruptor 4 at speed 5 for 30 seconds. Compound was extracted from plasma or organ homogenate by adding 900 μL acetonitrile to 100 μL plasma or organ homogenate. Samples were mixed by vortexing and allowed to extract overnight at 4° C. prior to mixing for at least 5 min by rotating at room temperature, vortexing, and sonicating for at least 30 second prior to centrifugation for 10 min at 4,000×g and 4° C. The supernatant was then transferred to a glass vial and analyzed by UPLC-MS described below. The concentration of each analog was determined against a standard curve with a nonlinear fit and the data plot in GraphPad Prism 9 and fit with a one phase decay.
Samples from animal studies were analyzed via UPLC-MS using a Waters Xevo G2-Xs QTof Mass spectrometer equipped with an Acquity UPLC. Chromatographic separation was carried out at 50° C. on a Acquity UPLC BEH C18 column (1.7 μm, 2.1 mm×50 mm, pore size 130 Å) over a 4.5 min gradient elution. The flowrate was held constant at 0.8 mL/min. Mobile phase A consisted of water and mobile phase B consisted of ACN both containing 0.1% formic acid. After injection, the gradient was held at 50% A for 0.25 min. For the next minute, the gradient was ramped in a linear fashion to 100% B and held at this composition for 0.5 min. The eluent composition returned to the initial condition in 0.01 min and the column was re-equilibrated for 2.74 min before the next injection. Injection volumes were 0.5 μL (TH-2-31 40 mg/kg) and 1 μL for all other conditions. The Xevo G2-Xs was operated in positive electrospray ionization (ESI) mode. A capillary voltage and sampling cone voltage of 0.5 kV and 30 V were used. The source and desolvation temperatures were kept at 120° C. and […], respectively. Nitrogen was used as the desolvation gas with a flowrate of 750 L/hr. The protonated molecular ion of leucine encephalin ([M+H]^+, m/z 556.2771 was used as a lock mass for mass accuracy and reproducibility. Leucine enkephalin was introduced to the lock mass at a concentration of 2 ng/mL (50% ACN containing 0.1% formic acid), and a flow rate of […]. To avoid signal saturation, the signal transmission was attenuated to <10%, based off the signal intensity of the highest standard concentration for the duration of the run. The data was collected over the mass range m/z 50 to 1200 Da with an acquisition time of 0.1 seconds per scan. The retention time for each analog is detailed below. […]

[5] = ^b 2 μM IKE, 48 hours, 1,000 cells/well
[6] = ^c 0.2 μM RSL3, 48 hours, 1,000 cells/well

half-life at 20 µM [1]	Structure (SMILES)	potency relative to fer-1 at suppressing ferroptosis, in words [2]	further results
< 1 h	Cc1cc(NC23CC4CC(CC(C4)C2)C3)c(N)cc1C(=O)OC(C)(C)C [AZIII4, tert-butyl 4-(((3s,5s,7s)-adamantan-1-yl)amino)-5-amino-2-methylbenzoate]	–	–
–	Cc1cccc(C)c1CNc1cc(C(=O)OC(C)(C)C)ccc1NC12CC3CC(CC(C3)C1)C2 [DL047, tert-butyl 4-(((3s,5s,7s)-adamantan-1-yl)amino)-3-((2,6-dimethylbenzyl)amino)benzoate]	less potent than fer-1	microsomal stability / half-life, in words [1]: half-lives greater than two hours
< 1 h	Cc1noc(-c2ccc(NC34CC5CC(CC(C5)C3)C4)c(N)c2)n1 [PHB4066, N1-((3s,5s,7s)-adamantan-1-yl)-4-(3-methyl-1,2,4-oxadiazol-5-yl)benzene-1,2-diamine]	–	–
–	Cc1cc(NC23CC4CC(CC(C4)C2)C3)c(NC2CCCCC2)cc1C(=O)OC(C)(C)C [AZIII9, tert-butyl 4-(((3s,5s,7s)-adamantan-1-yl)amino)-5-(cyclohexylamino)-2-methylbenzoate]	less potent than fer-1	microsomal stability / half-life, in words [1]: half-lives greater than two hours; also recorded: the most stable compound tested
< 1 h	CC(C)(C)OC(=O)c1ccc(NC2CCCCC2)c(Nc2ccccc2)c1 [PHB4081, tert-butyl 4-(cyclohexylamino)-3-(phenylamino)benzoate]	–	–
–	CC(C)(C)OC(=O)c1ccc(NC2CCCCC2)c(NC23CC4CC(CC(C4)C2)C3)c1 [DL034, tert-butyl 3-(((3s,5s,7s)-adamantan-1-yl)amino)-4-(cyclohexylamino)benzoate]	less potent than fer-1	microsomal stability / half-life, in words [1]: half-lives greater than two hours
–	Cc1noc(-c2cc(NC(C)C)cnc2NC2CCCCC2)n1 [TH-2-37-2, N^2-cyclohexyl-N^5-isopropyl-3-(3-methyl-1,2,4-oxadiazol-5-yl)pyridine-2,5-diamine]	potencies greater than fer-1	IC50 [2, 5]: 5.4 nM; IC50 [2, 6]: 3.8 nM
< 1 h	Cc1noc(-c2ccc(NC3CCCCC3)c(N)c2)n1 [PHB4078, N1-cyclohexyl-4-(3-methyl-1,2,4-oxadiazol-5-yl)benzene-1,2-diamine]	–	–
–	Cc1noc(-c2cnc(NC34CC5CC(CC(C5)C3)C4)c(NC3CCCCC3)c2)n1 [TH-4-100-2, N^2-((3s,5s,7s)-adamantan-1-yl)-N^3-cyclohexyl-5-(3-methyl-1,2,4-oxadiazol-5-yl) pyridine-2,3-diamine]	–	IC50 [3]: 18.9 nM; tolerability / adverse observations after dosing [4]: less impaired immediately following injection and recovered more quickly; also recorded: less impaired immediately following injection and recovered quicker
< 1 h	CC(C)(C)OC(=O)c1cc(N)c(NC23CC4CC(CC(C4)C2)C3)cc1F [AZII78, tert-butyl 4-(((3s,5s,7s)-adamantan-1-yl)amino)-5-amino-2-fluorobenzoate]	–	–
–	Cc1noc(-c2cc(NC3CCCCC3)cnc2NC2CCCCC2)n1 [TH-2-37-1, N^2,N^5-dicyclohexyl-3-(3-methyl-1,2,4-oxadiazol-5-yl)pyridine-2,5-diamine]	potencies greater than fer-1	IC50 [2, 5]: 7.5 nM; IC50 [2, 6]: 4.3 nM
